# Legend:
# human P2Y12 receptor = human P2Y12 receptor (Homo sapiens, UniProt Q9H244); test: Human P2Y12 recombinant cell membrane binding assay with 33P 2MeS-ADP; conditions: competition against 33P 2MeS-ADP, membranes of CHO cells with recombinant human P2Y12 receptor
# How it was run: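 CHO membranes expressing human P2Y12 (20 μg/ml stock) preincubated 15 min at RT with compound in HEPES pH 7.4 buffer, then 33P 2MeS-ADP (1.61 nM working solution) added for 20 min at RT. Bound label filtered and counted; four-point, five-fold series from 10 μM final, triplicate, four-parameter fit.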
# [1] = system: human platelet rich plasma; test: Inhibition of human platelet aggregation, 96-well assay; type: cell-based; conditions: Homo sapiens, Platelet, 20 min
# How it was run: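 ADP-induced aggregation read as 650 nm absorbance every minute for 20 min at 37 °C, with shaking between reads. PRP (~3×E8 platelets/ml, diluted with PPP, ACD-A blood from healthy volunteers) was exposed to compound for 5 min before adding a 40 μM ADP stock (15 μl into 150 μl).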
# [2] = system: human platelet rich plasma; test: Inhibition of human platelet aggregation, "Born"-method using single cuvettes; type: cell-based; conditions: 0.1 h, ADP-induced aggregation, 6 minutes
# Method: Inhibition of Human Platelet Aggregation
# Alternatively to a binding assay which measures a compound's ability to bind to the P2Y12 receptor, the effect on cellular function was also determined. This ability of the compound was evaluated in two platelet aggregation assays: in 96-well plates and with the “Born”-method using single cuvettes.
# Whole blood was collected from healthy volunteers using 20 ml syringes containing 2 ml of buffered Citrate. The anticoagulated whole blood was transferred into 15 ml polypropylene conical tubes (10 ml per tube). The tubes were centrifuged for 15 minutes at 340×g at RT without using the centrifuge brake. This procedure leads to a pellet of cellular components and a supernatant of platelet rich plasma (PRP). The PRP layer was collected from each tube and pooled for each donor. To avoid carry over of cellular components following centrifugation, approximately 5 ml of PRP was left in the tube. The platelet concentration was determined using a Coulter Counter.
# The 15 ml tubes containing the pellet of cellular components were centrifuged again for 10 minutes at 1940×g. This pelleted out most particulate blood constituents remaining, leaving a layer of Platelet Poor Plasma (PPP). The PPP was collected for each donor. The PRP layer, previously set aside, was diluted with PPP to a final concentration of approximately 3×E8 platelets/ml with the PPP.
# The human platelet aggregation assay is performed in single use cuvettes using the platelet aggregation profiler (PAP-4 or -8, Bio/Data corporation).
# In the assay cuvette 4 μl of test compound at 100× final concentration in DMSO is mixed with 392 μl fresh PRP and incubated for 2 minutes at 37° C. with 1.200 rpm stirring. Following that incubation period, 4 μl of 250 μM ADP is added to the reaction mix. This addition of ADP is sufficient to induce aggregation in the absence of an inhibitor. After that aggregation is measured over 6 minutes at 37° C. with 1.200 rpm stirring. Results of the assay are expressed as % inhibition, and are calculated using maximum aggregation (Tmax) or area under curve (AUC) of the absorbance over 6 minutes.
# The IC50 data of the above described platelet aggregation assay using human platelet rich plasma for exemplary compounds of the present invention are shown in table 3.
# Chain of human P2Y12 receptor (Q9H244 whole entry): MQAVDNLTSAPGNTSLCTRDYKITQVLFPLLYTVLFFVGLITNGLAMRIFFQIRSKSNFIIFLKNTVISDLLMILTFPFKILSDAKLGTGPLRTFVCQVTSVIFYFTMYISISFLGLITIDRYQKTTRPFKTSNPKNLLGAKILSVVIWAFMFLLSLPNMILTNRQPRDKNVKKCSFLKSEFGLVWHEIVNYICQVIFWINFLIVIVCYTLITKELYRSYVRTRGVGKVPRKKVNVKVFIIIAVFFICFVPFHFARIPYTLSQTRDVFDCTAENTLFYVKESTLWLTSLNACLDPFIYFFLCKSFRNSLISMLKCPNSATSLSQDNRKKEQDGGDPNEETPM
Structure (SMILES),IC50 (human P2Y12 receptor) [nM],IC50 [1] [nM],IC50 [2] [nM]
"CCOC(=O)N1CCN(C(=O)[C@H](CCC(=O)O)NC(=O)c2cc(OCC(=O)N3CCC[C@H]3C(=O)NCC(F)(F)F)n(-c3ccccc3)n2)CC1 [Example 2, 4-{(S)-4-Carboxy-2-[(5-{2-oxo-2-[(S)-2-(2,2,2-trifluoroethyl-carbamoyl)pyrrolidin-1-yl]-ethoxy}-1-phenyl-1H-pyrazole-3-carbonyl)-amino]-butyryl}-piperazine-1-carboxylic acid ethyl ester]",120,,11
"CCCNC(=O)[C@@H]1CCCN1C(=O)COc1cc(C(=O)N[C@@H](CCC(=O)O)C(=O)N2CCN(C(=O)OCC)CC2)nn1-c1ccccc1 [Example 9, 4-{(S)-4-Carboxy-2-[(5-{2-[(S)-2-propylcarbamoyl-pyrrolidin-1-yl]-2-oxo-ethoxy}-1-phenyl-1H-pyrazole-3-carbonyl)-amino]-butyryl}-piperazine-1-carboxylic acid ethyl ester]",172,60,91
"CCOC(=O)N1CCN(C(=O)[C@H](CCC(=O)O)NC(=O)c2cc(OCC(=O)N3CCC[C@H]3C(=O)NC(C)C)n(-c3ccccc3)n2)CC1 [Example 10, 4-{(S)-4-Carboxy-2-[(5-{2-[(S)-2-isopropylcarbamoyl-pyrrolidin-1-yl]-2-oxo-ethoxy}-1-phenyl-1H-pyrazole-3-carbonyl)-amino]-butyryl}-piperazine-1-carboxylic acid ethyl ester]",146,,340
"CCOC(=O)N1CCN(C(=O)[C@H](CCC(=O)O)NC(=O)c2cc(OCC(=O)N3CCC[C@H]3C(=O)NC(C)(C)C)n(-c3ccccc3)n2)CC1 [Example 12, 4-{(S)-4-Carboxy-2-[(5-{2-[(S)-2-tert-butylcarbamoyl-pyrrolidin-1-yl]-2-oxo-ethoxy}-1-phenyl-1H-pyrazole-3-carbonyl)-amino]-butyryl}-piperazine-1-carboxylic acid ethyl ester]",107,20,70
"CCOC(=O)N1CCN(C(=O)[C@H](CCC(=O)O)NC(=O)c2cc(OCC(=O)N3CCC[C@H]3C(=O)NCC(F)F)n(-c3ccccc3)n2)CC1 [Example 15, 4-{(S)-4-Carboxy-2-[(5-{2-[(S)-2-(2,2-difluoro-ethylcarbamoyl)-pyrrolidin-1-yl]-2-oxo-ethoxy}-1-phenyl-1H-pyrazole-3-carbonyl)-amino]-butyryl}-piperazine-1-carboxylic acid ethyl ester]",164,130,120
"CCOC(=O)N1CCN(C(=O)[C@H](CCC(=O)O)NC(=O)c2cc(OC(C)C(=O)N3CCC[C@H]3C(=O)NCC(F)(F)F)n(-c3ccccc3)n2)CC1 (stereo partly drawn) [Example 53, 4-{(S)-4-Carboxy-2-[(5-{1-methyl-2-oxo-2-[(S)-2-(2,2,2-trifluoro-ethylcarbamoyl)-pyrrolidin-1-yl]-ethoxy}-1-phenyl-1H-pyrazole-3-carbonyl)-amino]-butyryl}-piperazine-1-carboxylic acid ethyl ester]",129,30,39
"CCOC(=O)N1CCN(C(=O)[C@H](CC(=O)O)NC(=O)c2cc(OCC(=O)N3CCC[C@H]3C(=O)NCC3CC3)n(-c3ccccc3)n2)CC1 [Example 55, 4-{(S)-3-Carboxy-2-[(5-{2-[(S)-2-(cyclopropylmethyl-carbamoyl)-pyrrolidin-1-yl]-2-oxo-ethoxy}-1-phenyl-1H-pyrazole-3-carbonyl)-amino]-propionyl}-piperazine-1-carboxylic acid ethyl ester]",70,20,60
"CCOC(=O)N1CCN(C(=O)[C@H](CCC(=O)O)NC(=O)c2cc(O[C@H](C)C(=O)N3CCC[C@H]3C(=O)NCC3CC3)n(-c3ccccc3)n2)CC1 [Example 63, 4-[(S)-4-Carboxy-2-({5-[(R)-2-((S)-2-cyclopropylmethylcarbamoyl-pyrrolidin-1-yl)-1-methyl-2-oxo-ethoxy]-1-phenyl-1H-pyrazole-3-carbonyl}-amino)-butyryl]-piperazine-1-carboxylic acid ethyl ester]",41,,20
"CCOC(=O)N1CCN(C(=O)[C@H](CCC(=O)O)NC(=O)c2cc(O[C@H](C)C(=O)N3CCC[C@H]3C(=O)NCC(F)(F)F)n(-c3ccccc3)n2)CC1 [Example 65, 4-[(S)-4-Carboxy-2-({5-[(R)-2-((S)-2-(2,2,2-trifluoroethylcarbamoyl)-pyrrolidin-1-yl)-1-methyl-2-oxo-ethoxy]-1-phenyl-1H-pyrazole-3-carbonyl}-amino)-butyryl]-piperazine-1-carboxylic acid ethyl ester]",55,,120

# The remaining lines, values ahead:
IC50 (human P2Y12 receptor) [nM],IC50 [1] [nM],IC50 [2] [nM],Structure (SMILES)
270,10,210,"CCOC(=O)N1CCN(C(=O)[C@H](CCC(=O)O)NC(=O)c2cc(OCC(=O)N3CCC[C@H]3C(=O)NC3CC3)n(-c3ccccc3)n2)CC1 [Example 1, 4-[(S)-4-Carboxy-2-({5-[2-((S)-2-cyclopropylcarbamoyl-pyrrolidin-1-yl)-2-oxo-ethoxy]-1-phenyl-1H-pyrazole-3-carbonyl}-amino)-butyryl]-piperazine-1-carboxylic acid ethyl ester]"
50,100,72,"CCOC(=O)N1CCN(C(=O)[C@H](CCC(=O)O)NC(=O)c2cc(OCC(=O)N3CCC[C@H]3C(=O)NCC3CCC3)n(-c3ccccc3)n2)CC1 [Example 20, 4-{(S)-4-Carboxy-2-[(5-{2-[(S)-2-(cyclobutylmethyl-carbamoyl)-pyrrolidin-1-yl]-2-oxo-ethoxy}-1-phenyl-1H-pyrazole-3-carbonyl)-amino]-butyryl}-piperazine-1-carboxylic acid ethyl ester]"
71,,20,"CCCCOC(=O)N1CCN(C(=O)[C@H](CCC(=O)O)NC(=O)c2cc(OCC(=O)N3CCC[C@H]3C(=O)N(C)C3CCC3)n(-c3ccccc3)n2)CC1 [Example 124, 4-{(S)-4-Carboxy-2-[(5-{2-[(S)-2-(cyclobutyl-methyl-carbamoyl)-pyrrolidin-1-yl]-2-oxo-ethoxy}-1-phenyl-1H-pyrazole-3-carbonyl)-amino]-butyryl}-piperazine-1-carboxylic acid butyl ester]"
17,,70,"CCCCOC(=O)N1CCN(C(=O)[C@H](CCCO)NC(=O)c2cc(OCC(=O)N3CCC[C@H]3C(=O)NC3CCC3)n(-c3ccccc3)n2)CC1 [Example 178, 4-[(S)-2-({5-[2-((S)-2-Cyclobutylcarbamoyl-pyrrolidin-1-yl)-2-oxo-ethoxy]-1-phenyl-1H-pyrazole-3-carbonyl}-amino)-5-hydroxy-pentanoyl]-piperazine-1-carboxylic acid butyl ester]"
3,,50,"CCCCOC(=O)N1CCN(C(=O)CNC(=O)c2cc(O[C@H](C)C(=O)N3CCC[C@H]3C(=O)NC3CCC3)n(-c3ccccc3)n2)CC1 [Example 269, 4-[2-({5-[(R)-2-((S)-2-Cyclobutylcarbamoyl-pyrrolidin-1-yl)-1-methyl-2-oxo-ethoxy]-1-phenyl-1H-pyrazole-3-carbonyl}-amino)-acetyl]-piperazine-1-carboxylic acid butyl ester]"
